We go through 29 compounds from patent US5116855A, “Rhodanine derivatives and pharmaceutical compositions” (Nisshin Flour Milling Co., Ltd., priority 1989, dated 1992).

The assay has as its target T1, aldose reductase (Rattus norvegicus, UniProt P07943).
T1 construct: the lenses were excised and homogenized in cold distilled water; from tissue; host or cells: lens of male SD rats, homogenate supernatant (crude enzyme)
Put plainly: Inhibitory activity against aldose reductase (crude enzyme from rat lenses, NADPH oxidation at 340 nm, D,L-glyceraldehyde substrate). The class given is biochemical. The following applies: aldose reductase from SD rat lenses, pH 6.2, 30° C.; for inhibition at 10 µM: pH 6.2, 10^-5 M; for inhibition at 10 µM / inhibition at 1 µM: read-out: Percentage of inhibition (%); for inhibition at 1 µM: pH 6.2, 10^-6 M. On the procedure:
The compounds of the present invention were evaluated for the inhibitory activity against aldose reductase according to the following assay procedure.
Enzyme activity was assayed according to the modification [Biochemical Pharmacology, 25, 2505 (1976)] of the method described in J. Biol. Chem., 240, 877-882 (1965).
SD strain male rats were sacrificed by decapitation, the lenses were excised and homogenized in cold distilled water. The homogenate was then centrifuged and the supernatant was used as the crude aldose reductase solution.
Separately, a 0.1 M sodium phosphate buffer (pH 6.2) containing 0.4 M ammonium sulfate was prepared at 30° C. In this buffer were dissolved the present compound, the crude aldose reductase solution and nicotinamide-adenine dinucleotide phosphate, reduced form (NADPH). The mixture was preincubated at 30° C. for 3 minutes and the reaction was initiated by addition of D,L-glyceraldehyde. In this case, the concentration of the present compound dissolved was 10^-5 M and 10^-6 M, respectively. The total amount of the assay mixture was 1.0 ml, containing 0.16 mM of NADPH, 10 mM of D,L-glyceraldehyde and 0.010-0.016 units of aldose reductase.
The inhibitory activity of the present compounds against aldose reductase was measured using each 1.0 ml of the reaction mixture containing the present compound in the above concentration. In this measurement, the rate of NADPH oxidation was followed by recording the decrease in absorbance at 340 nm. The inhibitory activity of the present compounds against aldose reductase as measured was expressed in percentage of inhibition (%) as a relative activity based on a control value.

Usually inhibition stands for the percentage by which the read-out fell short of the control. As for `CCCC(=Cc1ccccc1OCC(=O)OC)C=C1SC(=S)NC1=O` (single isomer, unassigned) [61 Isomer A], the inhibition at 10 µM stood at 61.8% and the inhibition at 1 µM worked out at 28.7%. For the compound `CCOC(=O)CCC(C=Cc1cccs1)=C1SC(=S)NC1=O` (single isomer, unassigned) [13 Isomer B], where the note is “10^-5 M”, the “Percentage of inhibition (%)” value stood at 54.3%. Regarding `CC(C=Cc1cc(C(F)(F)F)ccc1OCC(=O)O)=C1SC(=S)NC1=O` [Example 89, 4-Trifluoromethyl-2-[3-(4-oxo-2-thioxo-5-thiazolinylidene)-1-butenyl]phenoxyacetic acid], the inhibition at 10 µM was determined as 92.9% and the inhibition at 1 µM amounted to 85.7%. Regarding `CCOC(=O)COc1ccc(C=C(C)C=C2SC(=S)NC2=O)cc1OC` [Example 53, Ethyl 2-methoxy-4-[2-methyl-3-(4-oxo-2-thioxo-5-thiazolinylidene)-1-propenyl]phenoxyacetate], the inhibition at 10 µM stood at 71.3% and the inhibition at 1 µM was found to be 32%.

Consider `CCCC(CCc1ccccc1OCC(=O)O)=C1SC(=S)NC1=O` (single isomer, unassigned) [27 Isomer B], for which the “Percentage of inhibition (%)” value amounted to 83.8% (10^-5 M) and 45.9% (10^-6 M). In the case of `COC(=O)COc1ccc(OC)cc1C=CC(C)=C1SC(=S)NC1=O` [Example 65, Methyl 4-methoxy-2-[3-(4-oxo-2-thioxo-5-thiazolinylidene)-1-butenyl]phenoxyacetate], the inhibition at 10 µM came out at 55.2% and the inhibition at 1 µM came out at 34.3%.

`COc1ccc(C=CC(C)=C2SC(=S)NC2=O)cc1OCC(=O)O` [Example 82, 2-Methoxy-5-[3-(4-oxo-2-thioxo-5-thiazolinylidene)-1-butenyl]phenoxyacetic acid]: the inhibition at 10 µM was found to be 67.6% and the inhibition at 1 µM came out at 22.1%. On the same counts, the results for `CCOC(=O)COc1ccc(CCC(C)=C2SC(=S)NC2=O)cc1OC` [Example 43, Ethyl 2-methoxy-4-[3-(4-oxo-2-thioxo-5-thiazolinylidene)butyl]phenoxyacetate] are 48.9% and 26.1%. Taken in the same sequence, the figures for `COC(=O)COc1ccc(C=CC(C)=C2SC(=S)NC2=O)cc1OC` [Example 42, Methyl 2-methoxy-4-[3-(4-oxo-2-thioxo-5-thiazolinylidene)-1-butenyl]phenoxyacetate] were 54.2% and 33.8%. Regarding `COC(=O)COc1ccccc1C=CC(C)=C1SC(=S)NC1=O` [Example 40, Methyl 2-[3-(4-oxo-2-thioxo-5-thiazolinylidene)-1-butenyl]phenoxyacetate], the inhibition at 10 µM is 38.8%. Consider `COc1cccc(CCC(C)=C2SC(=S)NC2=O)c1OCC(=O)O` [Example 73, 2-Methoxy-6-(3-(4-oxo-2-thioxo-5-thiazolinylidene)butyl]phenoxyacetic acid], for which the inhibition at 10 µM was 59.2%. On the same count and under the same terms, the figure for `O=C(O)CCC(C=Cc1ccc(C(F)(F)F)cc1)=C1SC(=S)NC1=O` (single isomer, unassigned) [Example 23, 6-(4-Trifluoromethylphenyl)-4-(4-oxo-2-thioxo-5-thiazolidinylidene)-5-hexenoic acid] is 64.6%.

Consider `COC(=O)COc1ccc(C=CC(C)=C2SC(=S)NC2=O)cc1OCC(=O)OC` (single isomer, unassigned) [60 Isomer B], for which the “Percentage of inhibition (%)” value by setting is: (10^-5 M) 70.3%; (10^-6 M) 30.4%. Take `CC(C=Cc1ccc(OCC(=O)O)cc1)=C1SC(=S)NC1=O` (single isomer, unassigned) [21 Isomer A]: the inhibition at 10 µM was 94.9% and the inhibition at 1 µM turned out to be 78.3%. With `CCOC(=O)CCC(C=Cc1cccc(O)c1)=C1SC(=S)NC1=O` (single isomer, unassigned) [8 Isomer B], where the note is “10^-5 M”, the “Percentage of inhibition (%)” value is listed as 43.1%. For `CC(=Cc1ccccc1OCC(=O)O)C=C1SC(=S)NC1=O` [Example 86, 2-[2-Methyl-3-(4-oxo-2-thioxo-5-thiazolinylidene)-1-propenyl]phenoxyacetic acid], the “Percentage of inhibition (%)” value came to 89.7% (10^-5 M) and 69.6% (10^-6 M). For the compound `CCCCCCC(C=Cc1ccc(C(=O)O)cc1)=C1SC(=S)NC1=O` (single isomer, unassigned) [26 Isomer B], under “10^-5 M”, the “Percentage of inhibition (%)” value came to 52.1%. As for `CCC(CCc1cccn1CCC(=O)O)=C1SC(=S)NC1=O` [Example 34, 3-{2-[3-(4-Oxo-2-thioxo-5-thiazolidinylidene)pentyl]pyrrol-1-yl}propionic acid], the inhibition at 10 µM amounted to 80.8% and the inhibition at 1 µM came to 35.5%. Regarding `COC(=O)COc1c(C=CC(C)=C2SC(=S)NC2=O)cccc1OC` [Example 46, Methyl 2-methoxy-6-(3-(4-oxo-2-thioxo-5-thiazolinylidene)-1-butenyl]phenoxyacetate], the inhibition at 10 µM amounted to 34.3%. The same measure, in the same setting: the figure for `CCOc1cc(CCC(C)=C2SC(=S)NC2=O)ccc1OCC(=O)OC` [Example 45, Methyl 2-ethoxy-4-[3-(4-oxo-2-thioxo-5-thiazolinylidene)butyl]phenoxyacetate] is 48.9%; for `COC(=O)c1ccccc1NC(=O)CCCC(C)=C1SC(=S)NC1=O` [Example 19, Methyl N-[5-(4-oxo-2-thioxo-5-thiazolidinylidene)hexanoyl]anthranilate] it is 34.6%. Regarding `CCCC(=Cc1ccccc1OCC(=O)O)C=C1SC(=S)NC1=O` [Example 84, 2-[2-Propyl-3-(4-oxo-2-thioxo-5-thiazolinylidene)-1-propenyl]phenoxyacetic acid], the inhibition at 10 µM came out at 92% and the inhibition at 1 µM came to 77.6%. On the same counts, the results for `O=C(O)CCC(C=Cc1ccc(C(=O)O)cc1)=C1SC(=S)NC1=O` [Example 29, 6-(4-Carboxyphenyl)-4-(4-oxo-2-thioxo-5-thiazolidinylidene)-5-hexenoic acid] are 82.8% and 38.5%. On the same counts, the results for `CC(=Cc1ccccc1OCC(=O)O)C=C1SC(=S)NC1=O` [Example 68, 2-[2-Methyl-3-(4-oxo-2-thioxo-5-thiazolinylidene)-1-propenyl]phenoxyacetic acid] are 93.7% and 82.4%. Taken in the same sequence, the figures for `CC(C=Cc1ccccc1OCC(=O)O)=C1SC(=S)NC1=O` [Example 67, 2-[3-(4-Oxo-2-thioxo-5-thiazolinylidene)-1-butenyl]phenoxyacetic acid] were 95.3% and 79.4%. Consider `CCCCCCC(C=Cc1ccc(C=CC(=O)O)cc1)=C1SC(=S)NC1=O` (single isomer, unassigned) [Example 28, 4-[3-(4-Oxo-2-thioxo-5-thiazolidinylidene)-1-nonenyl]cinnamic acid], for which the inhibition at 10 µM was 33%. On to “5-[α-Methyl-4-(1H-tetrazol-5-yl)cinnamylidene)-4-oxo-2-thioxothiazolidine [Example 17]”, for which the “Percentage of inhibition (%)” value runs as follows: (10^-5 M) 77.6%; (10^-6 M) 35.9%. As for `COc1ccc(C=CC(CCCC(=O)O)=C2SC(=S)NC2=O)cc1OC` (single isomer, unassigned) [38 Isomer B], the “Percentage of inhibition (%)” value was 94.5% (10^-5 M) and 77.9% (10^-6 M). With `COC(=O)COc1ccc(C=CC(C)=C2SC(=S)NC2=O)cc1OCC(=O)OC` (single isomer, unassigned) [60 Isomer A], the inhibition at 10 µM is 61.5% and the inhibition at 1 µM stood at 27.7%.
